Assay results taken from patent US20070112042A1, “Topical agent for application to the skin prior to luminous treatment” (priority 2003, published 2007).

Tested on: dermal collagen production
Details: topical Niacin plus 585 nm pulsed dye laser irradiation versus irradiation alone
From the text: Tests have been carried out for studying the dermal collagen production following topical application of Niacin prior to irradiation with a 585 nm pulsed dye laser.

## O=C(O)c1cccnc1 [Niacin, nicotinic acid]
  PIIINP levels (biochemical analysis): increase in the PIIINP levels above that of irradiation alone
